These results are taken from patent US6426352B1, “Sulfonamide inhibitors of farnesyl-protein transferase” (Schering Corporation, priority 1997, dated 2002).

Each structure is given as a SMILES string.

In data set [1] the target is T1, partially purified rat brain farnesyl protein transferase (FPT) (Rattus norvegicus, UniProt Q02293+Q04631).
T1 construct: partially purified rat brain farnesyl protein transferase (FPT); from tissue; host or cells: rat brain
Briefly: In vitro enzyme assay: inhibition of Ras-CVLS farnesylation by farnesyl protein transferase (H-ras FPT). In kind it is biochemical. The protocol:
1. In vitro enzyme assays: FPT IC50 (inhibition of farnesyl protein transferqase, in vitro enzyme assay) are determined by the methods disclosed in […] or WO 95/10516.

Data set [2] has as its system Ras processing in COS cells. The data set can be described thus: Cell-based assay: COS cells activity, inhibition of Ras processing. As to the method: 2. Cell-based assay. COS IC50 values refer to the COS cells activity inhibition of Ras processing, are determined by the methods disclosed in […] or WO 95/10516.

`O=S(=O)(c1ccc(-c2ccon2)s1)N1CCC([C@H]2c3ncc(Br)cc3CCc3cc(Cl)cc(Br)c32)CC1` [Example 14, (+)-4-(3,10-Dibromo-8-chloro-6,11-dihydro-5H-benzo[5,6]cyclohepta[1,2-b]pyridin-11(R)-yl)-1-[(5-(3-isoxazolyl)-2-thienyl]sulfonyl]pipiridine]: the IC50 in data set [1] was 276 nM.
Molecule `CS(=O)(=O)N1CCC(C2c3ncc(Br)cc3CCc3cc(Cl)cc(Br)c32)CC1` (single isomer, unassigned; (+)) [Example 4, (+)-4-(3,10-Dibromo-8-chloro-11-dihydro-5H-benzo[5,6]cyclohepta[1,2-b]pyridin-11-yl)-1-(methylsulfonyl)pipiridine] came in with a melting point of 216 to 217 °C. This molecule had a 50% inhibitory concentration (IC50) in data set [2] of 15 nM. Besides, the midpoint of inhibition in data set [1], the IC50, lay at 7 nM.
`Cn1cnc(S(=O)(=O)N2CCC([C@H]3c4ncc(Br)cc4CCc4cc(Cl)cc(Br)c43)CC2)c1` [Example 13, (+)-4-(3,10-Dibromo-8-chloro-6,11-dihydro-5H-benzo[5,6]cyclohepta[1,2-b]pyridin-11(R)-yl)-1-[(1-methyl-1H-imidazol-4-yl)sulfonyl]pipiridine] returned an IC50 in data set [1] of 85 nM.
Still for that read-out and setting: the figure for `C=CS(=O)(=O)N1CCC(C2c3ncc(Br)cc3CCc3cc(Cl)cc(Br)c32)CC1` (single isomer, unassigned; (+)) [Example 11, (+)-4-(3,10-Dibromo-8-chloro-11-dihydro-5H-benzo[5,6]cyclohepta[1,2-b]pyridin-11-yl)-1-(vinylsulfonyl)pipiridine] is 32 nM.
The molecule `CCCS(=O)(=O)N1CCC(C2c3ncc(Br)cc3CCc3cc(Cl)cc(Br)c32)CC1` (single isomer, unassigned; (+)) [Example 6, (+)-4-(3,10-Dibromo-8-chloro-11-dihydro-5H-benzo[5,6]cyclohepta[1,2-b]pyridin-11-yl)-1-(propylsulfonyl)pipiridine] gave a melting point of 97 to 98 °C. Besides, half-maximal inhibition in data set [1] (IC50) required 32 nM.
`O=S(=O)(CC(F)(F)F)N1CCC(C2c3ncc(Br)cc3CCc3cc(Cl)cc(Br)c32)CC1` (single isomer, unassigned; (+)) [Example 10, (+)-4-(3,10-Dibromo-8-chloro-11-dihydro-5H-benzo[5,6]cyclohepta[1,2-b]pyridin-11-yl)-1-(trifluoroethylsulfonyl)pipiridine] registered a melting point of 174 to 175 °C. In addition, half-maximal inhibition in data set [1] (IC50) required 89 nM.
`O=S(=O)(N1CCC(C2c3ncc(Br)cc3CCc3cc(Cl)cc(Br)c32)CC1)C(F)(F)F` (single isomer, unassigned; (+)) [Example 9, (+)-4-(3,10-Dibromo-8-chloro-11-dihydro-5H-benzo[5,6]cyclohepta[1,2-b]pyridin-11-yl)-1-(trifluoromethylsulfonyl)pipiridine] showed a melting point of 111 to 112 °C. Besides, the IC50 in data set [1] is 34 nM.
As for `O=S(=O)(c1ccccc1)N1CCC([C@H]2c3ncc(Br)cc3CCc3cc(Cl)cc(Br)c32)CC1` [Example 12, (+)-4-(3,10-Dibromo-8-chloro-6,11-dihydro-5H-benzo[5,6]cyclohepta[1,2-b]pyridin-11(R)-yl)-1-(phenylsulfonyl)pipiridine], the IC50 in data set [1] is 179 nM.
As for `CC(C)S(=O)(=O)N1CCC(C2c3ncc(Br)cc3CCc3cc(Cl)cc(Br)c32)CC1` (single isomer, unassigned; (+)) [Example 7, (+)-4-(3,10-Dibromo-8-chloro-11-dihydro-5H-benzo[5,6]cyclohepta[1,2-b]pyridin-11-yl)-1-(isopropylsulfonyl)pipiridine], the melting point was in the range of 203 to 205 °C. This molecule also returned an IC50 in data set [1] of 110 nM.
`CCCCS(=O)(=O)N1CCC(C2c3ncc(Br)cc3CCc3cc(Cl)cc(Br)c32)CC1` (single isomer, unassigned; (+)) [Example 8, (+)-4-(3,10-Dibromo-8-chloro-11-dihydro-5H-benzo[5,6]cyclohepta[1,2-b]pyridin-11-yl)-1-(butylsulfonyl)pipiridine] gave a melting point of 73 to 74 °C. In data set [1], this molecule gave an IC50 of 320 nM.
Molecule `CN(C)S(=O)(=O)N1CCC(C2c3ncc(Br)cc3CCc3cc(Cl)cc(Cl)c32)CC1` (single isomer, unassigned; (+)) [Example 2, (+)-4-(3-Bromo-8,10-dichloro-6,11-dihydro-5H-benzo[5,6,]cyclohepta[1,2-b]pyridin-11-yl)-N-N-dimethyl-1-piperidinesulfonamide] came in with a melting point of 202 to 203 °C. For the same molecule, in data set [1], the IC50 was 164 nM.
The like results for `NS(=O)(=O)N1CCC(C2c3ncc(Br)cc3CCc3cc(Cl)cc(Cl)c32)CC1` (single isomer, unassigned; (+)) [Example 3, (+)-4-(3-Bromo-8,10-dichloro-6,11-dihydro-5H-benzo[5,6]cyclohepta[1,2-b]pyridin-11-yl)-1-(aminosulfonyl)piperidine] were, in that order, 133 to 134 °C and 26 nM.
For `CCS(=O)(=O)N1CCC(C2c3ncc(Br)cc3CCc3cc(Cl)cc(Br)c32)CC1` (single isomer, unassigned; (+)) [Example 5, (+)-4-(3,10-Dibromo-8-chloro-11-dihydro-5H-benzo[5,6]cyclohepta[1,2-b]pyridin-11-yl)-1-(ethylsulfonyl)pipiridine], the melting point is 202 to 203 °C. Besides, in data set [1], inhibition was half-maximal at 15.4 nM (IC50).
For the molecule `CS(=O)(=O)N1CCC(C2c3ncc(Br)cc3CCc3cc(Cl)cc(Cl)c32)CC1` (single isomer, unassigned; (+)) [Example 1, (+)-4-(3-Bromo-8,10-dichloro-6,11-dihydro-5H-benzo[5,6]cyclohepta[1,2-b]pyridin-11-yl)-1-(methylsulfonyl)pipiridine], the melting point lay in the range of 160 to 163 °C. Moreover, the half-inhibitory concentration (IC50) in data set [2] was found to be 420 nM. This molecule gave an IC50 in data set [1] of 8 nM.
